Laboratory results published in patent US20130109682A1, “CYCLIC ETHER COMPOUNDS USEFUL AS KINASE INHIBITORS” (NOVARTIS AG, priority 2010, published 2013).

Assays:
Format in all cases: biochemical
PIM1 = PIM1 (Homo sapiens, UniProt P11309); experiment: Pim 1 AlphaScreen assay (high ATP); details: read-out: Pim1 IC50
Experimental: (§1) Pim1, Pim2, Pim3 AlphaScreen Assay Pim 1, Pim 2 & Pim 3 AlphaScreen assays using high ATP (11-125×ATP Km) were used to determine the biochemical activity of the inhibitors. The activity of Pim 1, Pim 2, & Pim 3 is measured using a homogeneous bead based system quantifying the amount of phosphorylated peptide substrate resulting from kinase-catalyzed phosphoryl transfer to a peptide substrate. Compounds to be tested are dissolved in 100% DMSO and directly distributed to a white 384-well plate at […] per well. To start the reaction, 5 μl of 100 nM Bad peptide (Biotin-AGAGRSRHSSYPAGT —OH) and ATP (concentrations described below) in assay buffer (50 mM Hepes, pH=7.5, 5 mM MgCl2, 0.05% BSA, 0.01% Tween-20, 1 mM DTT) is added to each well. This is followed by the addition of 5 μl/well of Pim 1, Pim 2 or Pim 3 kinase in assay buffer (concentrations described below). Final assay concentrations (described below) are in 2.5% DMSO. The reactions are performed for ˜2 hours, then stopped by the addition of 10 μl of 0.75 μg/ml anti-phospho Ser/Thr antibody (Cell Signaling), 10 μg/ml Protein A AlphaScreen beads (Perkin Elmer), and 10 μg/ml streptavidin coated AlphaScreen beads in stop/detection buffer (50 mM EDTA, 95 mM Tris, pH=7.5, 0.01% Tween-20). The stopped reactions are incubated overnight in the dark. The phosphorylated peptide is detected via an […] initiated chemiluminescence/fluorescence cascade using the Envision plate reader (Perkin Elmer).
(§2) IC50, the half maximal inhibitory concentration, represents the concentration of a test compound that is required for 50% inhibition of its target in vitro under the described assay conditions.

PIM2 = PIM2 (Homo sapiens, UniProt Q9P1W9); experiment: Pim 2 AlphaScreen assay (high ATP); details: read-out: Pim2 IC50
Chain of PIM2 (Q9P1W9 whole entry): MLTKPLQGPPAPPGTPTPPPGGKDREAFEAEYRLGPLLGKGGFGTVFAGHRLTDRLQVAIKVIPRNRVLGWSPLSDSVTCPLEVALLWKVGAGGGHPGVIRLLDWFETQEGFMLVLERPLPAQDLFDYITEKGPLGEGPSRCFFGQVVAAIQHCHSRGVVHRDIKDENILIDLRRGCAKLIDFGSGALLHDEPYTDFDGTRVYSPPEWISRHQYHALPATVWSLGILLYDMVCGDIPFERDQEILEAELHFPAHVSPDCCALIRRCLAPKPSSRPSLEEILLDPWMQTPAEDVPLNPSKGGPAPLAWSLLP
Summary of the method: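 This is a bead-based AlphaScreen run at high ATP (11-125× Km) with biotin-Bad peptide (100 nM in the substrate mix), in 50 mM Hepes pH 7.5, 5 mM MgCl2, 0.05% BSA, 0.01% Tween-20, 1 mM DTT and 2.5% DMSO final. After ~2 h the reaction was stopped with EDTA. Phospho-peptide was detected overnight with anti-phospho Ser/Thr antibody on Protein A and streptavidin beads, giving IC50.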

GSK3β = GSK3β (Homo sapiens, UniProt P49841); experiment: GSK3β ATP depletion assay; details: ATP depletion assay; read-out: GSK3b IC50
Chain of GSK3β (P49841 whole entry, species assumed): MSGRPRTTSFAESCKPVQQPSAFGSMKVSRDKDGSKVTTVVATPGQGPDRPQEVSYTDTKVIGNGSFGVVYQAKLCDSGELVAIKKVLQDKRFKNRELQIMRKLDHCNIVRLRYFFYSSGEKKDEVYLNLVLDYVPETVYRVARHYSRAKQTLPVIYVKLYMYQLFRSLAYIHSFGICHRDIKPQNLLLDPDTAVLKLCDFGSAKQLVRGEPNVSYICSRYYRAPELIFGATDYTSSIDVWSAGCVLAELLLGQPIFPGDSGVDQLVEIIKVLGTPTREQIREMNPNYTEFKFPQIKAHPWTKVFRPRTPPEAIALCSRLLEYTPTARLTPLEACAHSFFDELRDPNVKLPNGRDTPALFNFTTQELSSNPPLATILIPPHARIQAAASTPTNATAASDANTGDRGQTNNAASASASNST
Summary of the method: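 Human GSK3β (5 nM) preincubated 15 min with 10 μM biotinylated phospho-CREB peptide in pH 7.5 Tris buffer (15 mM MgCl2, 1 mM DTT, 0.1% BSA, 2.5% DMSO). Reaction started with 2 μM ATP and run to about 50% ATP depletion. Remaining ATP measured by KinaseGlo luminescence.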

PIM3 = PIM3 (Homo sapiens, UniProt Q86V86); experiment: Pim 3 AlphaScreen assay (high ATP); details: read-out: Pim3 IC50
Experimental: as §1, §2

Chain of PIM1 (P11309 whole entry): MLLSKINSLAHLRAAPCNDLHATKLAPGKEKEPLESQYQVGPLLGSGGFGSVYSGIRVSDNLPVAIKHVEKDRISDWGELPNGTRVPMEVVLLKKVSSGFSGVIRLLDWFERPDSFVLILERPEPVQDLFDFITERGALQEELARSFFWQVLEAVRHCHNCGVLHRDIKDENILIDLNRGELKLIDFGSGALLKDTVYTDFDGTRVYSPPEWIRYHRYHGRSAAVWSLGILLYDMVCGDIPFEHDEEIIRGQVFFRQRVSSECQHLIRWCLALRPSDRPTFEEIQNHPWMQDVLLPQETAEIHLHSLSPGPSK

Row | Compound | IC50 (PIM1) | IC50 (PIM2) | IC50 (GSK3β) | IC50 (PIM3)
1 | O=C(Nc1cnccc1[C@@H]1C[C@H](O)[C@@H](O)C2(CC2)O1)c1ccc(F)c(-c2c(F)cccc2F)n1 [Example 250, 6-(2,6-difluorophenyl)-N-(4-((5S,7S,8R)-7,8-dihydroxy-4-oxaspiro[2.5]octan-5-yl)pyridin-3-yl)-5-fluoropicolinamide] | 20.1 nM | 3590 nM | 1040 nM | 499 nM
2 | Cc1cc(F)c(-c2nc(C(=O)Nc3cnccc3[C@H]3C[C@@H](N)[C@](C)(O)[C@@H](C)O3)ccc2F)c(F)c1 [Example 245, N-(4-((2R,4R,5S,6R)-4-amino-5-hydroxy-5,6-dimethyltetrahydro-2H-pyran-2-yl)pyridin-3-yl)-6-(2,6-difluoro-4-methylphenyl)-5-fluoropicolinamide] | 0.05 nM | 6.9 nM | 768 nM | 0.8 nM
3 | CC(C)(C)[C@H]1O[C@@H](c2ccncc2NC(=O)c2ccnc(-c3c(F)cccc3F)n2)C[C@@H](N)[C@@H]1O [Example 277, N-(4-((2R,4R,5S,6R)-4-amino-6-(tert-butyl)-5-hydroxytetrahydro-2H-pyran-2-yl)pyridin-3-yl)-2-(2,6-difluorophenyl)pyrimidine-4-carboxamide] | 1.05 nM | 27.5 nM | 499 nM | 22.7 nM
4 | N[C@H]1C[C@@H](c2ccncc2NC(=O)c2ccc(F)c(-c3c(F)cccc3F)n2)O[C@@H](C2CC2)[C@@H]1O [Example 236, N-(4-((2S,4S,5R,6S)-4-amino-6-cyclopropyl-5-hydroxytetrahydro-2H-pyran-2-yl)pyridin-3-yl)-6-(2,6-difluorophenyl)-5-fluoropicolinamide] | 3.67 nM | 209 nM | > 25000 nM | 116 nM
5 | CC(C)C1OC(c2ccncc2NC(=O)c2ccc(F)c(-c3c(F)cccc3F)n2)C[C@H](N)[C@H]1O (stereo in doubt) [Example 274, N-(4-((2S,4S,5R,6R)-4-amino-5-hydroxy-6-isopropyltetrahydro-2H-pyran-2-yl)pyridin-3-yl)-6-(2,6-difluorophenyl)-5-fluoropicolinamide] | 4.7 nM | 305 nM | 10700 nM | 95.7 nM
6 | CC(C)(C)[C@@H]1O[C@H](c2ccncc2NC(=O)c2ccc(F)c(-c3c(F)cccc3F)n2)C[C@H](N)[C@H]1O [Example 254, N-(4-((2S,4S,5R,6S)-4-amino-6-(tert-butyl)-5-hydroxytetrahydro-2H-pyran-2-yl)pyridin-3-yl)-6-(2,6-difluorophenyl)-5-fluoropicolinamide] | 0.78 nM | 47.2 nM | 4690 nM | 16 nM
7 | CC(C)C1OC(c2ccncc2NC(=O)c2nc(-c3c(F)cccc3F)ncc2N)C[C@H](N)[C@H]1O (stereo in doubt) [Example 273, 5-amino-N-(4-((2S,4S,5R,6R)-4-amino-5-hydroxy-6-isopropyltetrahydro-2H-pyran-2-yl)pyridin-3-yl)-2-(2,6-difluorophenyl)pyrimidine-4-carboxamide] | 23.1 nM | 660 nM | 16100 nM | 512 nM
8 | CC[C@]1(O)[C@H](N)C[C@H](c2ccncc2NC(=O)c2ccc(F)c(-c3c(F)cc(C)cc3F)n2)O[C@@H]1C [Example 259, N-(4-((2R,4R,5S,6R)-4-amino-5-ethyl-5-hydroxy-6-methyltetrahydro-2H-pyran-2-yl)pyridin-3-yl)-6-(2,6-difluoro-4-methylphenyl)-5-fluoropicolinamide] | 0.03 nM | 4.8 nM | 218 nM | 0.4 nM
9 | Cc1cc(F)c(-c2nc(C(=O)Nc3cnccc3[C@H]3C[C@@H](N)[C@H](O)[C@@H](C(C)(C)C)O3)ccc2F)c(F)c1 [Example 270, N-(4-((2R,4R,5S,6R)-4-amino-6-tert-butyl-5-hydroxytetrahydro-2H-pyran-2-yl)pyridin-3-yl)-6-(2,6-difluoro-4-methylphenyl)-5-fluoropicolinamide] | 0.03 nM | 3.1 nM | 1060 nM | 0.5 nM
10 | CC(C)(C)[C@H]1O[C@@H](c2ccncc2NC(=O)c2csc(-c3c(F)cccc3F)n2)C[C@@H](N)[C@@H]1O [Example 268, N-(4-((2R,4R,5S,6R)-4-amino-6-tert-butyl-5-hydroxytetrahydro-2H-pyran-2-yl)pyridin-3-yl)-2-(2,6-difluorophenyl)thiazole-4-carboxamide] | 0.16 nM | 20.3 nM | 207 nM | 3.6 nM
11 | CC(C)(C)[C@H]1O[C@@H](c2ccncc2NC(=O)c2ccc(F)c(-c3c(F)cccc3F)n2)C[C@@H](N)[C@@H]1O [Example 255, N-(4-((2R,4R,5S,6R)-4-amino-6-(tert-butyl)-5-hydroxytetrahydro-2H-pyran-2-yl)pyridin-3-yl)-6-(2,6-difluorophenyl)-5-fluoropicolinamide] | 0.03 nM | 1.7 nM | 2190 nM | 0.4 nM
12 | COc1cc(F)c(-c2nc(C(=O)Nc3cnccc3[C@H]3C[C@@H](N)[C@H](O)[C@@H](C(C)(C)C)O3)ccc2F)c(F)c1 [Example 269, N-(4-((2R,4R,5S,6R)-4-amino-6-tert-butyl-5-hydroxytetrahydro-2H-pyran-2-yl)pyridin-3-yl)-6-(2,6-difluoro-4-methoxyphenyl)-5-fluoropicolinamide] | 0.03 nM | 2.4 nM | 613 nM | 0.5 nM
13 | Cc1cc(F)c(-c2nc(C(=O)Nc3cnccc3[C@H]3C[C@@H](N)[C@](C)(O)[C@@H](C4CC4)O3)ccc2F)c(F)c1 [Example 264, N-(4-((2R,4R,5S,6R)-4-amino-6-cyclopropyl-5-hydroxy-5-methyltetrahydro-2H-pyran-2-yl)pyridin-3-yl)-6-(2,6-difluoro-4-methylphenyl)-5-fluoropicolinamide] | 0.11 nM | 8.1 nM | 1790 nM | 2.4 nM
14 | CC[C@]1(O)[C@H](N)C[C@H](c2ccncc2NC(=O)c2ccc(F)c(-c3c(F)cc(OC)cc3F)n2)O[C@@H]1C [Example 258, N-(4-((2R,4R,5S,6R)-4-amino-5-ethyl-5-hydroxy-6-methyltetrahydro-2H-pyran-2-yl)pyridin-3-yl)-6-(2,6-difluoro-4-methoxyphenyl)-5-fluoropicolinamide] | 0.04 nM | 6.2 nM | 183 nM | 0.5 nM
15 | CC(C)[C@H]1O[C@@H](c2ccncc2NC(=O)c2nc(-c3c(F)cccc3F)ncc2N)C[C@@H](N)[C@@H]1O [Example 272, 5-amino-N-(4-((2R,4R,5S,6R)-4-amino-5-hydroxy-6-isopropyltetrahydro-2H-pyran-2-yl)pyridin-3-yl)-2-(2,6-difluorophenyl)pyrimidine-4-carboxamide] | 0.66 nM | 10.9 nM | 1220 nM | 9 nM
16 | C[C@@]1(O)[C@@H](N)C[C@@H](c2ccncc2NC(=O)c2ccc(F)c(-c3c(F)cccc3F)n2)OC12CC2 [Example 266, N-(4-((5S,7S,8R)-7-amino-8-hydroxy-8-methyl-4-oxaspiro[2.5]octan-5-yl)pyridin-3-yl)-6-(2,6-difluorophenyl)-5-fluoropicolinamide] | 1.98 nM | 394 nM | 6060 nM | 27.5 nM
17 | C[C@]1(O)[C@H](N)C[C@H](c2ccncc2NC(=O)c2ccc(F)c(-c3c(F)cccc3F)n2)OC12CC2 [Example 289, N-(4-((5R,7R,8S)-7-amino-8-hydroxy-8-methyl-4-oxaspiro[2.5]octan-5-yl)pyridin-3-yl)-6-(2,6-difluorophenyl)-5-fluoropicolinamide] | 2.5 nM | 213 nM | 6930 nM | 29.7 nM
18 | C[C@]1(O)[C@H](O)C[C@H](c2ccncc2NC(=O)c2ccc(F)c(-c3c(F)cccc3F)n2)O[C@@H]1C1CC1 [Example 247, N-(4-((2R,4R,5S,6R)-6-cyclopropyl-4,5-dihydroxy-5-methyltetrahydro-2H-pyran-2-yl)pyridin-3-yl)-6-(2,6-difluorophenyl)-5-fluoropicolinamide] | 4.01 nM | 185 nM | 1200 nM | 103 nM
